# Assays:
# Experiment in all cases: relative viability (nuclei count vs DMSO), 5 days (fraction); higher = more cells survive
# Idelalisib + Tozasertib = compound: CC[C@H](Nc1ncnc2[nH]cnc12)c1nc2cccc(F)c2c(=O)n1-c1ccccc1 [Idelalisib] + Cc1cc(Nc2cc(N3CCN(C)CC3)nc(Sc3ccc(NC(=O)C4CC4)cc3)n2)n[nH]1 [Tozasertib] (partner 0.1 µM)
# In short: (§1)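 After 5 days of treatment, lung cancer cells in 1536-well plates were fixed and stained in a single step (final 0.05% Triton X-100, 1% formaldehyde, 1 ug/ml Hoechst) and their nuclei counted on 4× images. Treatment had been applied by pin tool the day after seeding as one drug alone or as a fixed anchor-drug dose with five library-drug doses (not always all listed) in √10 steps. Relative viability is the nuclei count of treated wells divided by that of vehicle wells, and values are medians of duplicate plates.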
# Idelalisib + Alpelisib = compound: CC[C@H](Nc1ncnc2[nH]cnc12)c1nc2cccc(F)c2c(=O)n1-c1ccccc1 [Idelalisib] + Cc1nc(NC(=O)N2CCC[C@H]2C(N)=O)sc1-c1ccnc(C(C)(C)C(F)(F)F)c1 [Alpelisib] (partner 2 µM)
# In short: as §1
# Idelalisib + Pictilisib = compound: CC[C@H](Nc1ncnc2[nH]cnc12)c1nc2cccc(F)c2c(=O)n1-c1ccccc1 [Idelalisib] + CS(=O)(=O)N1CCN(Cc2cc3nc(-c4cccc5[nH]ncc45)nc(N4CCOCC4)c3s2)CC1 [Pictilisib] (partner 1 µM)
# In short: as §1
# Pemetrexed + Trametinib = compound: Nc1nc2[nH]cc(CCc3ccc(C(=O)N[C@@H](CCC(=O)O)C(=O)O)cc3)c2c(=O)[nH]1 [Pemetrexed] + CC(=O)Nc1cccc(-n2c(=O)n(C3CC3)c(=O)c3c(Nc4ccc(I)cc4F)n(C)c(=O)c(C)c32)c1 [Trametinib] (partner 0.02 µM)
# In short: as §1
Cell Line,relative viability (Idelalisib + Tozasertib; first compound 0.04 µM),relative viability (Idelalisib + Tozasertib; first compound 0.1265 µM),relative viability (Idelalisib + Tozasertib; first compound 0.4 µM),relative viability (Idelalisib + Tozasertib; first compound 1.265 µM),relative viability (Idelalisib + Tozasertib; first compound 4 µM),relative viability (Idelalisib + Alpelisib; first compound 0.04 µM),relative viability (Idelalisib + Alpelisib; first compound 0.1265 µM),relative viability (Idelalisib + Alpelisib; first compound 0.4 µM),relative viability (Idelalisib + Alpelisib; first compound 1.265 µM),relative viability (Idelalisib + Alpelisib; first compound 4 µM),relative viability (Idelalisib + Pictilisib; first compound 0.04 µM),relative viability (Idelalisib + Pictilisib; first compound 0.1265 µM),relative viability (Idelalisib + Pictilisib; first compound 0.4 µM),relative viability (Idelalisib + Pictilisib; first compound 1.265 µM),relative viability (Idelalisib + Pictilisib; first compound 4 µM),relative viability (Pemetrexed + Trametinib; first compound 0.002 µM),relative viability (Pemetrexed + Trametinib; first compound 0.006325 µM),relative viability (Pemetrexed + Trametinib; first compound 0.02 µM),relative viability (Pemetrexed + Trametinib; first compound 0.06325 µM),relative viability (Pemetrexed + Trametinib; first compound 0.2 µM)
LXF-289,0.259,0.189,0.195,0.14,0.235,0.997,1.05,0.996,1.01,0.993,0.894,0.78,0.722,0.873,0.745,0.685,0.673,0.729,0.676,0.637
NCI-H23,0.39,0.528,0.363,–,0.334,0.737,0.635,0.357,0.727,0.515,0.689,0.489,0.381,0.451,0.462,0.426,0.294,0.408,0.375,0.381
NCI-H322M,0.516,0.532,0.466,0.44,0.453,0.826,0.764,0.632,0.62,0.716,0.546,0.584,0.444,0.508,0.549,0.511,0.478,0.503,0.456,0.551
NCI-H358,0.106,0.0937,0.113,0.088,0.116,1.03,0.894,0.857,0.94,0.719,0.359,0.355,0.281,0.342,0.355,0.133,0.117,0.151,0.125,0.125
NCI-H441,0.725,0.685,0.728,0.536,0.591,0.987,0.455,–,0.839,0.611,0.522,0.451,–,0.375,0.393,0.536,0.501,0.448,0.303,0.247
NCI-H460,0.626,0.397,0.436,0.447,0.255,0.566,0.521,0.426,0.324,0.291,0.363,0.318,0.315,0.36,0.359,–,0.0664,0.241,0.0967,0.0451
NCI-H520,0.468,0.4,0.406,0.405,0.405,0.862,0.878,0.64,0.769,0.349,0.394,0.308,0.283,0.294,0.309,0.569,0.682,0.757,0.606,0.657
NCI-H596,0.818,1.01,0.73,0.855,0.815,0.597,0.397,0.483,0.467,0.364,0.412,0.402,0.389,0.405,0.65,0.886,0.869,0.663,0.643,0.5
NCI-H647,0.313,0.394,–,0.0094,0.109,1.27,1.17,0.845,1.12,0.68,0.448,0.452,0.475,0.377,0.393,0.52,0.436,0.478,0.406,0.17
NCI-H650,0.748,0.767,0.635,0.803,0.69,1.27,1.01,0.961,1.46,0.962,0.849,0.858,0.907,0.819,0.783,0.894,0.887,–,1.03,1.02
NCI-H661,0.414,0.358,0.391,0.358,0.408,0.708,0.642,0.637,0.718,0.813,0.426,0.37,0.446,0.468,0.456,0.659,0.524,0.705,0.549,0.571
NCI-H727,0.669,0.533,0.713,0.652,0.559,0.643,0.69,0.499,0.588,0.622,0.385,0.66,0.312,0.773,0.476,0.346,0.395,0.464,0.357,0.404
NCI-H838,0.268,0.288,0.282,0.258,0.257,0.902,1.02,0.914,0.957,0.818,0.505,0.469,0.346,0.531,0.469,0.555,0.53,0.664,0.393,0.169
NCI-H1355,0.534,0.611,0.442,0.488,0.386,0.956,0.767,0.751,0.679,0.568,0.521,0.501,0.4,0.376,0.449,0.404,0.441,0.392,0.416,0.418
NCI-H1395,0.817,0.77,0.771,0.767,0.62,1.17,0.987,0.974,1.15,0.694,0.714,0.525,0.564,0.613,0.557,0.932,1,1.13,0.954,1.03
NCI-H1437,0.333,0.43,0.411,0.384,0.397,0.947,1.07,0.892,0.84,0.748,0.491,0.526,0.429,0.437,0.525,0.362,0.473,0.424,0.382,0.285

Cell Line,relative viability (Idelalisib + Tozasertib; first compound 0.04 µM),relative viability (Idelalisib + Tozasertib; first compound 0.1265 µM),relative viability (Idelalisib + Tozasertib; first compound 0.4 µM),relative viability (Idelalisib + Tozasertib; first compound 1.265 µM),relative viability (Idelalisib + Tozasertib; first compound 4 µM),relative viability (Idelalisib + Alpelisib; first compound 0.04 µM),relative viability (Idelalisib + Alpelisib; first compound 0.1265 µM),relative viability (Idelalisib + Alpelisib; first compound 0.4 µM),relative viability (Idelalisib + Alpelisib; first compound 1.265 µM),relative viability (Idelalisib + Alpelisib; first compound 4 µM),relative viability (Idelalisib + Pictilisib; first compound 0.04 µM),relative viability (Idelalisib + Pictilisib; first compound 0.1265 µM),relative viability (Idelalisib + Pictilisib; first compound 0.4 µM),relative viability (Idelalisib + Pictilisib; first compound 1.265 µM),relative viability (Idelalisib + Pictilisib; first compound 4 µM),relative viability (Pemetrexed + Trametinib; first compound 0.002 µM),relative viability (Pemetrexed + Trametinib; first compound 0.006325 µM),relative viability (Pemetrexed + Trametinib; first compound 0.02 µM),relative viability (Pemetrexed + Trametinib; first compound 0.06325 µM),relative viability (Pemetrexed + Trametinib; first compound 0.2 µM)
NCI-H1651,0.673,0.623,0.615,0.593,0.605,0.921,0.864,0.907,0.964,0.845,0.685,0.574,0.523,0.762,0.625,0.857,0.783,0.821,0.827,0.786
NCI-H1666,0.662,0.594,0.78,0.639,0.57,1.03,0.909,0.89,0.888,0.747,0.541,0.48,0.469,0.361,0.333,0.845,0.826,0.926,0.873,0.784
NCI-H1734,0.264,0.246,0.253,0.254,0.246,0.695,0.7,0.574,0.592,0.443,0.519,0.492,0.41,0.453,0.37,0.603,0.623,0.679,0.627,0.524
NCI-H1755,0.541,0.616,0.483,0.488,0.489,0.611,0.9,0.827,0.784,0.735,0.444,0.466,0.358,0.41,0.372,0.737,0.809,0.775,0.731,0.732
NCI-H1793,0.344,0.311,0.222,0.229,0.225,0.835,0.571,0.392,0.671,0.529,0.306,0.355,0.307,0.312,0.296,0.411,0.323,0.381,0.423,0.424
NCI-H1915,0.55,0.406,0.374,0.407,0.402,1.14,1.11,1.03,1.11,1.04,1.22,0.952,0.881,1.08,0.9,0.287,0.294,0.248,0.306,0.283
NCI-H1944,0.272,0.229,0.219,0.224,0.211,0.881,0.836,0.651,0.688,0.545,0.374,0.357,0.308,0.376,0.33,0.354,0.449,0.45,0.407,0.38
NCI-H1975,0.7,0.794,0.671,0.718,0.565,0.681,0.609,0.552,0.613,0.4,0.324,0.295,0.249,0.316,0.271,0.277,0.408,0.323,0.329,0.237
NCI-H1993,0.628,0.54,0.519,0.583,0.574,0.691,0.592,0.679,0.665,0.667,0.804,0.8,0.807,0.896,0.803,0.457,0.439,0.551,0.522,0.549
NCI-H2009,0.736,0.852,0.667,0.756,0.567,1.18,1.12,1.14,1.17,1.01,0.85,0.767,0.798,0.84,0.768,0.303,0.256,0.316,0.249,0.27
NCI-H2023,0.355,0.284,0.363,0.321,0.253,0.693,0.564,0.524,0.494,0.313,0.221,0.279,0.153,0.241,0.266,0.502,0.553,0.537,0.392,0.183
NCI-H2085,0.915,0.779,0.8,0.641,0.692,1.01,0.955,0.811,0.874,0.514,0.531,0.452,0.38,0.451,0.413,0.605,0.47,0.553,0.583,0.576
NCI-H2087,0.249,0.272,0.212,0.216,0.235,1.03,1.19,1.11,1.09,0.651,0.989,0.743,0.853,0.907,0.904,0.145,0.173,0.215,0.212,0.249
NCI-H2126,0.838,0.905,0.765,0.813,0.626,0.739,0.739,0.611,0.675,0.6,0.525,0.53,0.404,0.515,0.521,0.55,0.522,0.591,0.567,0.533
NCI-H2170,0.796,0.706,0.69,0.727,0.633,0.795,0.854,0.708,0.688,0.547,0.313,0.312,0.228,0.295,0.29,0.916,0.915,0.923,0.955,0.912
NCI-H2228,0.292,0.216,0.223,0.271,0.239,1.07,0.739,0.774,0.672,0.631,0.383,0.367,0.355,0.396,0.421,0.509,0.611,0.597,0.318,0.285

# Source: the supplement of paper PMC10307832
